Test results as given in patent publication US20230310388A1, “Methods and Compositions for Treating Fungal Infections” (Neoculi Pty Ltd, priority 2020, published 2023).
In brackets after ≈: the same amount, converted by molar mass. Several values for one entry are separate records, joined by “and”; a condition that tells them apart may be missing. Equal values may be shown once.

Columns and labels:
Format in all cases: cell-based
Candida albicans [1] = assay: CLSI broth microdilution MIC (Example 5)
In short: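 Broth microdilution per CLSI in RPMI 1640 with twofold compound dilutions, inoculum about 2×10^3 cells/mL. Plates incubated at 35° C for 24-48 hours. MIC determined per isolate in duplicate, with a third repeat when the two values differed.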

Malassezia pachydermatis [2] = assay: MIC, mSAB broth microdilution (Example 1); conditions: for activity against all 13 isolates of Malassezia pachydermatis: summary in words
From the text: There is no recommended Clinical & Laboratory Standards Institute (CLSI) standard for M. pachydermatis. In the literature there are a number of papers which have developed Minimum Inhibitory Concentration (MIC) methodology for Malassezia species isolated from both humans and animals (ie both lipophilic and non-lipophilic species). In all papers, the methodology has been altered from the original CLSI protocols in order to overcome four main problem areas involved in testing this yeast. • 1) Finding a suitable growth medium for Malassezia, especially the lipophilic species. […] When testing the azole group of anti-fungal agents, there is also the well known trailing end point problem with MIC determination. Trailing occurs when the turbidity continually decreases as the drug concentration increases but the suspension fails to become optically clear (partial inhibition of growth over an extended range of antifungal concentrations). The following method was originally developed by Eichenberg et al. (2003) (mSAB broth microdilution method). The mSAB method was devised to follow as closely as possible the CLSI guidelines whilst still allowing for the distinct biochemical and growth requirements of M. pachydermatis. Sabouraud dextrose broth with 1% Tween 80 was chosen as the assay medium as it allowed for excellent growth of the organism. Higher inoculum concentrations (1-4×10^6 CFU/ml) and increased time of incubation (48 to 72 hours) were used to enable sufficient growth of the test strains.

Candida albicans [3] = assay: Checkerboard MIC/FICI of NCL812 and EDTA (Example 2); conditions: isolate Candida albicans
Malassezia pachydermatis [4] = assay: as above; conditions: for MIC: Malassezia pachydermatis, read-out: MIC, compound alone; for MIC, combination: EDTA + NCL812 combination; for FICI: NCL812 with EDTA
From the text: There is no recommended CLSI standard for M. pachydermatis. In the literature there are a number of papers which have developed MIC methodology for Malassezia species isolated from both humans and animals (ie both lipophilic and non-lipophilic species). In all papers the methodology has been altered from the original CLSI protocols in order to overcome four main problem areas involved in testing this yeast. • 1) Finding a suitable growth medium for Malassezia, especially the lipophilic species. […] The method followed was originally developed by Eichenberg et al. (2003) (mSAB broth microdilution method). The mSAB method was devised to follow as closely as possible the CLSI guidelines whilst still allowing for the distinct biochemical and growth requirements of M. pachydermatis. […] Briefly, 150 μl of SDB+1% TW80 was added to each well of a 96-well microtiter plate, which was used as the checkerboard challenge plate. Next, a two-fold serial dilution of NCL 812 (robenidine) working solution was performed along the abscissa (column 3 to 12 only) (1/2 to 1/1024 dilution ratio). […] Experiments were performed in duplicate and repeated twice. […] The FICI values were interpreted as follows (Hamoud et al., 2015).

## Cc1ccc(/C=N/Nc2cc(N/N=C/c3ccc(C)cc3)nc(N)n2)cc1 [NCL195]
Candida albicans [1]; C. albicans SA3
  MIC: 2 µg/mL (≈ 5.56 µM)
Candida albicans [1]; Candida albicans ATCC 90028
  MIC: 2 µg/mL (≈ 5.56 µM)
Candida albicans [1]; clinical isolate C. albicans 12-93301752 Azole Resistant
  MIC: 4 µg/mL (≈ 11.1 µM)
Candida albicans [1]; clinical isolate C. albicans 14-90045999 Azole Resistant
  MIC: >16 µg/mL
Candida albicans [1]; clinical isolate C. albicans 15-45171061
  MIC: 8 µg/mL (≈ 22.3 µM)
Candida albicans [1]; clinical isolate C. albicans 15-91329871
  MIC: 8 µg/mL (≈ 22.3 µM)
Candida albicans [1]; clinical isolate C. albicans 16-24136919 Azole Resistant
  MIC: 4 µg/mL (≈ 11.1 µM)
Candida albicans [1]; clinical isolate C. albicans 16-46177400
  MIC: 4 µg/mL (≈ 11.1 µM)
Candida albicans [1]; clinical isolate C. albicans 16-90050810
  MIC: 4 µg/mL (≈ 11.1 µM)
Candida albicans [1]; clinical isolate C. albicans 16-90054237
  MIC: 4 µg/mL (≈ 11.1 µM)
Candida albicans [1]; clinical isolate C. albicans 18-144-00196
  MIC: 4 µg/mL (≈ 11.1 µM)
Candida albicans [1]; clinical isolate C. albicans 18-148-08188 Azole Resistant
  MIC: >16 µg/mL
Candida albicans [1]; summary in words
  activity against one or more isolates of Cryptococcus neoformans and Candida albicans: highly active
Malassezia pachydermatis [2]; Malassezia isolate M1-017
  MIC: 1 µg/mL (≈ 2.78 µM)
Malassezia pachydermatis [2]; Malassezia isolate M-018
  MIC: 1 µg/mL (≈ 2.78 µM)
Malassezia pachydermatis [2]; Malassezia isolate M-020
  MIC: 1 µg/mL (≈ 2.78 µM)
Malassezia pachydermatis [2]; Malassezia isolate M-036
  MIC: 1 µg/mL (≈ 2.78 µM)
Malassezia pachydermatis [2]; Malassezia isolate M-037
  MIC: 1 µg/mL (≈ 2.78 µM)
Malassezia pachydermatis [2]; Malassezia isolate M-038
  MIC: 1 µg/mL (≈ 2.78 µM)
Malassezia pachydermatis [2]; Malassezia isolate M-040
  MIC: 0.5 µg/mL and 1 µg/mL
Malassezia pachydermatis [2]; Malassezia isolate M-052
  MIC: 1 µg/mL (≈ 2.78 µM)
Malassezia pachydermatis [2]; Malassezia isolate M-055
  MIC: 1 µg/mL (≈ 2.78 µM)
Malassezia pachydermatis [2]; Malassezia isolate M-060
  MIC: 1 µg/mL (≈ 2.78 µM)
Malassezia pachydermatis [2]; Malassezia isolate M-066
  MIC: 1 µg/mL (≈ 2.78 µM)
Malassezia pachydermatis [2]; Malassezia isolate M-067
  MIC: 0.5 µg/mL and 1 µg/mL
Malassezia pachydermatis [2]; Malassezia isolate M-069
  MIC: 1 µg/mL (≈ 2.78 µM)
Malassezia pachydermatis [2]
  activity against all 13 isolates of Malassezia pachydermatis: highly active

## N=C(N/N=C/c1ccc(Cl)cc1)N/N=C/c1ccc(Cl)cc1 [NCL812, robenidine, reference compound]
Candida albicans [1]; Candida albicans, ATCC90028, Candida albicans ATCC 90028, read-out: MIC
  MIC: 2 µg/mL (≈ 5.98 µM)
Candida albicans [1]; Candida albicans, clinical isolate C. albicans 12-93301752 Azole Resistant, read-out: MIC
  MIC: 2 µg/mL (≈ 5.98 µM)
Candida albicans [1]; Candida albicans, clinical isolate C. albicans 14-90045999 Azole Resistant, read-out: MIC
  MIC: 2 µg/mL (≈ 5.98 µM)
Candida albicans [1]; Candida albicans, clinical isolate C. albicans 15-45171061, read-out: MIC
  MIC: 1 µg/mL (≈ 2.99 µM)
Candida albicans [1]; Candida albicans, clinical isolate C. albicans 15-91329871, read-out: MIC
  MIC: 2 µg/mL (≈ 5.98 µM)
Candida albicans [1]; Candida albicans, clinical isolate C. albicans 16-24136919 Azole Resistant, read-out: MIC
  MIC: 2 µg/mL (≈ 5.98 µM)
Candida albicans [1]; Candida albicans, clinical isolate C. albicans 16-46177400, read-out: MIC
  MIC: 4 µg/mL (≈ 12 µM)
Candida albicans [1]; Candida albicans, clinical isolate C. albicans 16-90050810, read-out: MIC
  MIC: 2 µg/mL (≈ 5.98 µM)
Candida albicans [1]; Candida albicans, clinical isolate C. albicans 16-90054237, read-out: MIC
  MIC: 2 µg/mL (≈ 5.98 µM)
Candida albicans [1]; Candida albicans, clinical isolate C. albicans 18-144-00196, read-out: MIC
  MIC: 0.5 µg/mL (≈ 1.5 µM)
Candida albicans [1]; Candida albicans, clinical isolate C. albicans 18-148-08188 Azole Resistant, read-out: MIC
  MIC: 1 µg/mL (≈ 2.99 µM)
Candida albicans [1]; Candida albicans, C. albicans SA3, read-out: MIC
  MIC: 2 µg/mL (≈ 5.98 µM)
Candida albicans [1]; summary in words
  activity against all tested isolates of Cryptococcus neoformans and Candida albicans: active
  activity against one or more isolates of Cryptococcus neoformans and Candida albicans: highly active
Malassezia pachydermatis [2]; Malassezia isolate M-036
  MIC: 2 µg/mL (≈ 5.98 µM)
Malassezia pachydermatis [2]; Malassezia isolate M-066
  MIC: 2 µg/mL (≈ 5.98 µM)
Malassezia pachydermatis [2]; Malassezia pachydermatis, Malassezia isolate M1-017, read-out: MIC
  MIC: 2 µg/mL (≈ 5.98 µM)
Malassezia pachydermatis [2]; Malassezia pachydermatis, Malassezia isolate M-018, read-out: MIC
  MIC: 2 µg/mL (≈ 5.98 µM)
Malassezia pachydermatis [2]; Malassezia pachydermatis, Malassezia isolate M-020, read-out: MIC
  MIC: 2 µg/mL (≈ 5.98 µM)
Malassezia pachydermatis [2]; Malassezia pachydermatis, Malassezia isolate M-036, read-out: MIC
  MIC: 1 µg/mL (≈ 2.99 µM)
Malassezia pachydermatis [2]; Malassezia pachydermatis, Malassezia isolate M-037, read-out: MIC
  MIC: 2 µg/mL (≈ 5.98 µM)
Malassezia pachydermatis [2]; Malassezia pachydermatis, Malassezia isolate M-038, read-out: MIC
  MIC: 1 µg/mL (≈ 2.99 µM)
Malassezia pachydermatis [2]; Malassezia pachydermatis, Malassezia isolate M-040, read-out: MIC
  MIC: 2 µg/mL (≈ 5.98 µM)
Malassezia pachydermatis [2]; Malassezia pachydermatis, Malassezia isolate M-052, read-out: MIC
  MIC: 1 µg/mL (≈ 2.99 µM)
Malassezia pachydermatis [2]; Malassezia pachydermatis, Malassezia isolate M-055, read-out: MIC
  MIC: 1 µg/mL (≈ 2.99 µM)
Malassezia pachydermatis [2]; Malassezia pachydermatis, Malassezia isolate M-060, read-out: MIC
  MIC: 1 µg/mL (≈ 2.99 µM)
Malassezia pachydermatis [2]; Malassezia pachydermatis, Malassezia isolate M-066, read-out: MIC
  MIC: 1 µg/mL (≈ 2.99 µM)
Malassezia pachydermatis [2]; Malassezia pachydermatis, Malassezia isolate M-067, read-out: MIC
  MIC: 1 µg/mL (≈ 2.99 µM)
Malassezia pachydermatis [2]; Malassezia pachydermatis, Malassezia isolate M-069, read-out: MIC
  MIC: 2 µg/mL (≈ 5.98 µM)
Malassezia pachydermatis [2]
  activity against all 13 isolates of Malassezia pachydermatis: highly active
Candida albicans [3]; EDTA + NCL812 combination
  MIC, combination: 1 µg/mL
Candida albicans [3]; NCL812 with EDTA
  FICI: 0.75
Candida albicans [3]; read-out: MIC, compound alone
  MIC: 4 µg/mL
Malassezia pachydermatis [4]; isolate ML18
  MIC: 1 µg/mL
  MIC, combination: 0.5 µg/mL
  FICI: 1
Malassezia pachydermatis [4]; isolate ML19
  MIC: 2 µg/mL
  MIC, combination: 1 µg/mL
  FICI: 1
Malassezia pachydermatis [4]; isolate ML20
  MIC: 1 µg/mL
  MIC, combination: 0.5 µg/mL
  FICI: 1
Malassezia pachydermatis [4]; isolate ML21
  MIC: 2 µg/mL
  MIC, combination: 1 µg/mL
  FICI: 1
Malassezia pachydermatis [4]; isolate ML36
  MIC: 2 µg/mL
  MIC, combination: 1 µg/mL
  FICI: 1
Malassezia pachydermatis [4]; isolate ML41
  MIC: 2 µg/mL
  MIC, combination: 0.5 µg/mL
  FICI: 0.75
Malassezia pachydermatis [4]; isolate ML42
  MIC: 2 µg/mL
  MIC, combination: 1 µg/mL
  FICI: 1
Malassezia pachydermatis [4]; isolate ML43
  MIC: 4 µg/mL
  MIC, combination: 2 µg/mL
  FICI: 1
Malassezia pachydermatis [4]; isolate ML44
  MIC: 1 µg/mL
  MIC, combination: 0.5 µg/mL
  FICI: 1
Malassezia pachydermatis [4]; isolate ML69
  MIC: 2 µg/mL
  MIC, combination: 1 µg/mL
  FICI: 1
Malassezia pachydermatis [4]; each of the 11 isolates (10 Malassezia, 1 Candida albicans)
  interaction of NCL812 and EDTA (FICI interpretation): Synergy (FICI ≤ 0.5)
